Where a name gives a salt, the structure may show the parent alone.
Row | melting point | SMILES
1 | 270 to 275 °C | COc1ncc(-c2nc(N=C(N)N)nc3ccc(Cl)cc23)c(OC)n1 (as salt: HCl) [Example 235]
2 | 302 °C | NC(N)=Nc1nc(-n2c(Br)ccc2Br)c2cc(Cl)ccc2n1 (as salt: HCl) [Example 196]
3 | 317 to 320 °C | Cc1noc(C)c1-c1nc(N=C(N)N)nc2ccc(Cl)cc12 (as salt: HCl) [Example 215]
